Measured values: ChEMBL document CHEMBL1201862, “PubChem BioAssay data set” (2004)
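All cell lines were grown in 96-well plates and treated with compound for 48 hours. At the GI50, growth is halved.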 Activity calls are given as the source filed them. Rule as the data show it: active = GI50 up to about 1.1 µM and inactive = higher.

Assays:
Assay in all cases: growth of human tumour cells (NCI), 48 h
786-0 = test system: 786-0
A549 = test system: A549
ACHN = test system: ACHN
CAKI-1 = test system: CAKI-1
COLO 205 = test system: COLO 205
HCT-116 = test system: HCT-116
HOP-62 = test system: HOP-62
HOP-92 = test system: HOP-92
HT-29 = test system: HT-29
K562 = test system: K562
LOX IMVI = test system: LOX IMVI
NCI-H460 = test system: NCI-H460
OVCAR-4 = test system: OVCAR-4
SF-295 = test system: SF-295
SF-539 = test system: SF-539
SNB-78 = test system: SNB-78
UACC-62 = test system: UACC-62
UO-31 = test system: UO-31
Hs-578T = test system: Hs-578T
PC-3 = test system: PC-3

Row | SMILES | GI50 (786-0) | GI50 (A549) | GI50 (ACHN) | GI50 (CAKI-1) | GI50 (COLO 205) | GI50 (HCT-116) | GI50 (HOP-62) | GI50 (HOP-92) | GI50 (HT-29) | GI50 (K562) | GI50 (LOX IMVI) | GI50 (NCI-H460) | GI50 (OVCAR-4) | GI50 (SF-295) | GI50 (SF-539) | GI50 (SNB-78) | GI50 (UACC-62) | GI50 (UO-31) | GI50 (Hs-578T) | GI50 (PC-3)
1 | Cc1c(C(=O)C/C(=N/NC(=O)CC#N)C(N)=O)[n+]([O-])c2ccccc2[n+]1[O-] | > 100 µM (inactive) | > 100 µM (inactive) | 54 µM (inactive) | > 100 µM (inactive) | 34.6 µM (inactive) | 28.1 µM (inactive) | > 100 µM (inactive) | > 100 µM (inactive) | 78 µM (inactive) | 52.1 µM (inactive) | 34.3 µM (inactive) | 38.4 µM (inactive) | 32.7 µM (inactive) | > 100 µM (inactive) | 37.8 µM (inactive) | 88.3 µM (inactive) | 33 µM (inactive) | > 100 µM (inactive) |  | 
2 | O=C(c1cccs1)N(C(=S)N1CCN(c2ccccc2)CC1)C1CCCCC1 | > 100 µM (inactive) | > 100 µM (inactive) | > 100 µM (inactive) | > 100 µM (inactive) | > 100 µM (inactive) | > 100 µM (inactive) | > 100 µM (inactive) | > 100 µM (inactive) | > 100 µM (inactive) | > 100 µM (inactive) | > 100 µM (inactive) | > 100 µM (inactive) | > 100 µM (inactive) | > 100 µM (inactive) | > 100 µM (inactive) | > 100 µM (inactive) | > 100 µM (inactive) | > 100 µM (inactive) |  | 
3 | OCC(O)COc1ccc(F)cc1 (stereo not given) | > 100 µM (inactive) | > 100 µM (inactive) | > 100 µM (inactive) | > 100 µM (inactive) | > 100 µM (inactive) | > 100 µM (inactive) | > 100 µM (inactive) | > 100 µM (inactive) | > 100 µM (inactive) | > 100 µM (inactive) | > 100 µM (inactive) | > 100 µM (inactive) | > 100 µM (inactive) | > 100 µM (inactive) | > 100 µM (inactive) | > 100 µM (inactive) | > 100 µM (inactive) | > 100 µM (inactive) |  | 
4 | C/C=C/C(=O)Oc1cccc2cccnc12 | 29.2 µM (inactive) | 18.8 µM (inactive) | 18.2 µM (inactive) | 32.6 µM (inactive) | 18.6 µM (inactive) | 3.76 µM (inactive) | 26.7 µM (inactive) | 8.32 µM (inactive) | 19.7 µM (inactive) | 6.08 µM (inactive) | 9.2 µM (inactive) | 3.32 µM (inactive) | 4.39 µM (inactive) | 12.1 µM (inactive) | 7.83 µM (inactive) | 27.4 µM (inactive) | 6.98 µM (inactive) | 6.97 µM (inactive) |  | 
5 | COc1cc(CC2c3cc(OC)c(OC)cc3CCN2C)c(Oc2cc3c(cc2OC)-c2c(OC)c(OC)c(OC)c4c2C(C3)N(C)CC4)cc1OC (stereo not given) | 8.39 µM (inactive) | 15.9 µM (inactive) | 15.8 µM (inactive) | 14.8 µM (inactive) | 7.23 µM (inactive) | 11.7 µM (inactive) | 17.3 µM (inactive) | 6.53 µM (inactive) | 8.77 µM (inactive) | 2.63 µM (inactive) | 6.73 µM (inactive) | 15.6 µM (inactive) | 16 µM (inactive) | 14.6 µM (inactive) | 13 µM (inactive) | 17.4 µM (inactive) | 15.2 µM (inactive) | 7.93 µM (inactive) |  | 
6 | CN(C)CCCNc1ccc2ncn3c4ccc(O)cc4c(=O)c1c23 | 0.692 µM (active) | 0.0721 µM (active) | 0.158 µM (active) | 0.195 µM (active) | 1.11 µM (active) | 0.458 µM (active) | 0.538 µM (active) | 0.705 µM (active) | 1.3 µM (inactive) | 1.35 µM (inactive) | 0.607 µM (active) | 0.105 µM (active) | 1.55 µM (inactive) | 0.708 µM (active) | 0.506 µM (active) | 9.73 µM (inactive) | 1.2 µM (inactive) | 1.35 µM (inactive) | 0.541 µM (active) | 1.83 µM (inactive)
